Molecular target: TYK2 (Homo sapiens, UniProt P29597)
Experiment: TYK2 protein degradation in MOLT-4 cells by immunoblotting
Assay type: cell-based
Design: endogenous in cells; host or cells: MOLT-4
Conditions: MOLT-4 cells, 24 hours
Description: MOLT-4 cells were treated with compounds at 0.5 and 5 μM concentrations for 24 hours.
MOLT-4 cells were treated with CPD-038, CPD-039, and CPD-040 at 0.04, 0.2, 1, and 5 μM concentrations for 24 hours.
MOLT-4 or NOMO-1 cells were cultured at 37° C. with 5% CO2 in RPMI 1640 Medium supplemented with 10% fetal bovine serum. Cells were authenticated using the short tandem repeat (STR) assays. Mycoplasma test results were negative.
Cultured cells were washed with cold PBS once and lysed in cold RIPA buffer supplemented with protease inhibitors and phosphatase inhibitors (Beyotime Biotechnology). The solutions were then incubated at 4° C. for 30 minutes with gentle agitation to fully lyse cells. Cell lysates were centrifuged at 13,000 rpm for 10 minutes at 4° C. and pellets were discarded. Total protein concentrations in the lysates were determined by BCA assays (Beyotime Biotechnology). Cell lysates were mixed with Laemmli loading buffer to 1× and heated at 99° C. for 5 min. Proteins were resolved on SDS-PAGE and visualized by chemiluminescence. Images were taken by a ChemiDoc MP Imaging system (Bio-Rad). Protein bands were quantitated using the accompanied software provided by Bio-Rad.
The percentage of TYK2 protein degradation of each compound at 0.5 and 5 μM determined in MOLT-4 cells as described in Methods.

Sequence of TYK2 (P29597 whole entry): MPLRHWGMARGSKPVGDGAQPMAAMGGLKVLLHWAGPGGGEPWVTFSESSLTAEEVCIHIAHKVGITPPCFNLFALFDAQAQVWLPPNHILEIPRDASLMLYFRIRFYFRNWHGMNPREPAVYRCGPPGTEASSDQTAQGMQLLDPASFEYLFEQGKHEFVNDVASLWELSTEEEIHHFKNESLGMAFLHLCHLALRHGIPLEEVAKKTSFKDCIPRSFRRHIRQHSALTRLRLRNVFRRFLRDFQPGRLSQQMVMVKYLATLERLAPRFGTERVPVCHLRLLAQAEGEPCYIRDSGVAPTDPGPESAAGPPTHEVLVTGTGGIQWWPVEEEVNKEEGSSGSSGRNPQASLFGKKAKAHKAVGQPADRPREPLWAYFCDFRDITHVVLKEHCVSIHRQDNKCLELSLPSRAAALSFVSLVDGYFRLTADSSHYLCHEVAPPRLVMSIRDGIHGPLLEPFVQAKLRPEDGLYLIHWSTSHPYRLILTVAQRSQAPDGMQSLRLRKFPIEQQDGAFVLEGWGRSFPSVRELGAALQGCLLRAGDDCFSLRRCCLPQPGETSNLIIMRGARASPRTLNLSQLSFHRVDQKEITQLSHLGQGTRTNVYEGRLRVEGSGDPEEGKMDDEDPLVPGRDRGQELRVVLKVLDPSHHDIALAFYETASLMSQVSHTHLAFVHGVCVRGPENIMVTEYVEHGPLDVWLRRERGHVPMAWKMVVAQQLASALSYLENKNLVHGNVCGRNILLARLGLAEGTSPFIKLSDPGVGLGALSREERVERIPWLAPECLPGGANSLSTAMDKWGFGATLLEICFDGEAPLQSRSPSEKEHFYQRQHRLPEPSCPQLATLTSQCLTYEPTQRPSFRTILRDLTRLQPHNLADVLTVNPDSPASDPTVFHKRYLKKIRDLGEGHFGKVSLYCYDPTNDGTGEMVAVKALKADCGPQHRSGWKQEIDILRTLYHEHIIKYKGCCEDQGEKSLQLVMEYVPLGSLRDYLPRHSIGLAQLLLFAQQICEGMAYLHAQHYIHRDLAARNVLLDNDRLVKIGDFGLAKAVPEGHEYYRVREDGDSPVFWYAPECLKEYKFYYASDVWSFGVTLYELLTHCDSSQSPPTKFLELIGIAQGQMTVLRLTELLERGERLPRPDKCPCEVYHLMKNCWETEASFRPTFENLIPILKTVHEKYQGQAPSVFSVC

Structure (SMILES)	TYK2 Degradation (0.5 μM) [%]	TYK2 Degradation (5 μM) [%]	TYK2 Degradation (MOLT-4, 0.5 μM)	TYK2 Degradation (MOLT-4, 5 μM)
CNC(=O)c1nnc(NC(=O)C2CC2)cc1Nc1cccc(-c2ncn(CCNC(=O)CCOCCOCCOCCOCCNc3ccc4c(c3)C(=O)N(C3CCC(=O)NC3=O)C4=O)n2)c1OC (stereo not shown) [CPD-021, 6-(Cyclopropanecarboxamido)-4-((3-(1-(1-((2-(2,6-dioxopiperidin-3-yl)-1,3-dioxoisoindolin-5-yl)amino)-15-oxo-3,6,9,12-tetraoxa-16-azaoctadecan-18-yl)-1H-1,2,4-triazol-3-yl)-2-methoxyphenyl)amino)-N-methylpyridazine-3-carboxamide]	≤20	≤20	–	–
CNC(=O)c1nnc(NC(=O)C2CC2)cc1Nc1cccc(-c2ncn(CCNC(=O)CCCCNc3ccc4c(c3)C(=O)N(C3CCC(=O)NC3=O)C4=O)n2)c1OC (stereo not shown) [CPD-016, 6-(Cyclopropanecarboxamido)-4-((3-(1-(2-(5-((2-(2,6-dioxopiperidin-3-yl)-1,3-dioxoisoindolin-5-yl)amino)pentanamido)ethyl)-1H-1,2,4-triazol-3-yl)-2-methoxyphenyl)amino)-N-methylpyridazine-3-carboxamide]	≤20	–	–	–
CNC(=O)c1nnc(Nc2ccc(N3CCN(C(=O)CCCCCCC(=O)N[C@H](C(=O)N4C[C@H](O)C[C@H]4C(=O)NCc4ccc(-c5scnc5C)cc4)C(C)(C)C)CC3)cn2)cc1Nc1cccc(-c2ncn(C)n2)c1OC [CPD-100, 6-((5-(4-(8-(((S)-1-((2S,4R)-4-hydroxy-2-((4-(4-methylthiazol-5-yl)benzyl)carbamoyl)pyrrolidin-1-yl)-3,3-dimethyl-1-oxobutan-2-yl)amino)-8-oxooctanoyl)piperazin-1-yl)pyridin-2-yl)amino)-4-((2-methoxy-3-(1-methyl-1H-1,2,4-triazol-3-yl)phenyl)amino)-N-methylpyridazine-3-carboxamide]	–	–	A (A: ≥60% TYK2 degradation)	B (B: <60% TYK2 degradation, and >20% TYK2 degradation)
CNC(=O)c1nnc(NC(=O)CNC(=O)CCOCCOCCOCCOCCOCCNc2ccc3c(c2)C(=O)N(C2CCC(=O)NC2=O)C3=O)cc1Nc1cccc(-c2ncn(C)n2)c1OC (stereo not shown) [CPD-065, 6-(1-((2-(2,6-Dioxopiperidin-3-yl)-1,3-dioxoisoindolin-5-yl)amino)-18-oxo-3,6,9,12,15-pentaoxa-19-azahenicosan-21-amido)-4-((2-methoxy-3-(1-methyl-1H-1,2,4-triazol-3-yl)phenyl)amino)-N-methylpyridazine-3-carboxamide]	≤20	≤20	–	–
CNC(=O)c1nnc(NC(=O)CNC(=O)CCCCCCCNc2ccc3c(c2)C(=O)N(C2CCC(=O)NC2=O)C3=O)cc1Nc1cccc(-c2ncn(C)n2)c1OC (stereo not shown) [CPD-060, 6-(2-(8-((2-(2,6-Dioxopiperidin-3-yl)-1,3-dioxoisoindolin-5-yl)amino)octanamido)acetamido)-4-((2-methoxy-3-(1-methyl-1H-1,2,4-triazol-3-yl)phenyl)amino)-N-methylpyridazine-3-carboxamide]	≤20	≤20	–	–
CNC(=O)c1nnc(NC(=O)C2CC2)cc1Nc1cccc(-c2ncn(CCNC(=O)CCCCCNc3cccc4c3C(=O)N(C3CCC(=O)NC3=O)C4=O)n2)c1OC (stereo not shown) [CPD-005, 6-(Cyclopropanecarboxamido)-4-((3-(1-(2-(6-((2-(2,6-dioxopiperidin-3-yl)-1,3-dioxoisoindolin-4-yl)amino)hexanamido)ethyl)-1H-1,2,4-triazol-3-yl)-2-methoxyphenyl)amino)-N-methylpyridazine-3-carboxamide]	≤20	–	–	–
CNC(=O)c1nnc(NC(=O)C2CC2)cc1Nc1cccc(-c2ncn(CCNC(=O)CCOCCNc3ccc4c(c3)C(=O)N(C3CCC(=O)NC3=O)C4=O)n2)c1OC (stereo not shown) [CPD-018, 6-(Cyclopropanecarboxamido)-4-((3-(1-(2-(3-(2-((2-(2,6-dioxopiperidin-3-yl)-1,3-dioxoisoindolin-5-yl)amino)ethoxy)propanamido)ethyl)-1H-1,2,4-triazol-3-yl)-2-methoxyphenyl)amino)-N-methylpyridazine-3-carboxamide]	≤20	–	–	–
CNC(=O)c1nnc(NC(=O)CNC(=O)CCCNc2cccc3c2C(=O)N(C2CCC(=O)NC2=O)C3=O)cc1Nc1cccc(-c2ncn(C)n2)c1OC (stereo not shown) [CPD-044, 6-(2-(4-((2-(2,6-Dioxopiperidin-3-yl)-1,3-dioxoisoindolin-4-yl)amino)butanamido)acetamido)-4-((2-methoxy-3-(1-methyl-1H-1,2,4-triazol-3-yl)phenyl)amino)-N-methylpyridazine-3-carboxamide]	≤20	≤20	–	–
CNC(=O)c1nnc(NC(=O)C2CC2)cc1Nc1cccc(-c2ncn(CCNC(=O)CCCNc3cccc4c3C(=O)N(C3CCC(=O)NC3=O)C4=O)n2)c1OC (stereo not shown) [CPD-003, 6-(Cyclopropanecarboxamido)-4-((3-(1-(2-(4-((2-(2,6-dioxopiperidin-3-yl)-1,3-dioxoisoindolin-4-yl)amino)butanamido)ethyl)-1H-1,2,4-triazol-3-yl)-2-methoxyphenyl)amino)-N-methylpyridazine-3-carboxamide]	≤20	–	–	–
CNC(=O)c1nnc(NC(=O)C2CC2)cc1Nc1cccc(-c2ncn(CCNC(=O)CCOCCOCCOCCOCCOCCNc3cccc4c3C(=O)N(C3CCC(=O)NC3=O)C4=O)n2)c1OC (stereo not shown) [CPD-012, 6-(Cyclopropanecarboxamido)-4-((3-(1-(1-((2-(2,6-dioxopiperidin-3-yl)-1,3-dioxoisoindolin-4-yl)amino)-18-oxo-3,6,9,12,15-pentaoxa-19-azahenicosan-2l-yl)-1H-1,2,4-triazol-3-yl)-2-methoxyphenyl)amino)-N-methylpyridazine-3-carboxamide]	≤20	–	–	–
CNC(=O)c1nnc(NC(=O)CNC(=O)CCNc2cccc3c2C(=O)N(C2CCC(=O)NC2=O)C3=O)cc1Nc1cccc(-c2ncn(C)n2)c1OC (stereo not shown) [CPD-043, 6-(2-(3-((2-(2,6-Dioxopiperidin-3-yl)-1,3-dioxoisoindolin-4-yl)amino)propanamido)acetamido)-4-((2-methoxy-3-(1-methyl-1H-1,2,4-triazol-3-yl)phenyl)amino)-N-methylpyridazine-3-carboxamide]	≤20	≤20	–	–
CNC(=O)c1nnc(NC(=O)CNC(=O)CCCCCCCCCC(=O)N[C@H](C(=O)N2C[C@H](O)C[C@H]2C(=O)NCc2ccc(-c3scnc3C)cc2)C(C)(C)C)cc1Nc1cccc(-c2ncn(C)n2)c1OC [CPD-041, N^1—((S)-1-((2S,4R)-4-Hydroxy-2-((4-(4-methylthiazol-5-yl)benzyl)carbamoyl)pyrrolidin-1-yl)-3,3-dimethyl-1-oxobutan-2-yl)-N^11-(2-((5-((2-methoxy-3-(1-methyl-1H-1,2,4-triazol-3-yl)phenyl)amino)-6-(methylcarbamoyl)pyridazin-3-yl)amino)-2-oxoethyl)undecanediamide]	50	30	–	–
CNC(=O)c1nnc(NC(=O)CNC(=O)COCCOCC(=O)N[C@H](C(=O)N2C[C@H](O)C[C@H]2C(=O)NCc2ccc(-c3scnc3C)cc2)C(C)(C)C)cc1Nc1cccc(-c2ncn(C)n2)c1OC [CPD-027, 6-((S)-13-((2S,4R)-4-Hydroxy-2-((4-(4-methylthiazol-5-yl)benzyl)carbamoyl)pyrrolidine-1-carbonyl)-14,14-dimethyl-4,11-dioxo-6,9-dioxa-3,12-diazapentadecanamido)-4-((2-methoxy-3-(1-methyl-1H-1,2,4-triazol-3-yl)phenyl)amino)-N-methylpyridazine-3-carboxamide]	≤20	≤20	–	–
CNC(=O)c1nnc(NC(=O)CNC(=O)COc2cc(-c3scnc3C)ccc2CNC(=O)[C@@H]2C[C@@H](O)CN2C(=O)[C@@H](NC(=O)C2(F)CC2)C(C)(C)C)cc1Nc1cccc(-c2ncn(C)n2)c1OC [CPD-101, 6-(2-(2-(2-(((2S,4R)-1-((S)-2-(1-Fluorocyclopropane-1-carboxamido)-3,3-dimethylbutanoyl)-4-hydroxypyrrolidine-2-carboxamido)methyl)-5-(4-methylthiazol-5-yl)phenoxy)acetamido)acetamido)-4-((2-methoxy-3-(1-methyl-1H-1,2,4-triazol-3-yl)phenyl)amino)-N-methylpyridazine-3-carboxamide]	–	–	C (C: ≤20% TYK2 degradation)	C (C: ≤20% TYK2 degradation)
CNC(=O)c1nnc(NC(=O)C2CC2)cc1Nc1cccc(-c2ncn(CCNC(=O)CCCCNc3cccc4c3C(=O)N(C3CCC(=O)NC3=O)C4=O)n2)c1OC (stereo not shown) [CPD-004, 6-(Cyclopropanecarboxamido)-4-((3-(1-(2-(5-((2-(2,6-dioxopiperidin-3-yl)-1,3-dioxoisoindolin-4-yl)amino)pentanamido)ethyl)-1H-1,2,4-triazol-3-yl)-2-methoxyphenyl)amino)-N-methylpyridazine-3-carboxamide]	≤20	–	–	–
CNC(=O)c1nnc(NC(=O)C2CC2)cc1Nc1cccc(-c2ncn(CCNC(=O)CCCCCCCNc3cccc4c3C(=O)N(C3CCC(=O)NC3=O)C4=O)n2)c1OC (stereo not shown) [CPD-007, 6-(Cyclopropanecarboxamido)-4-((3-(1-(2-(8-((2-(2,6-dioxopiperidin-3-yl)-1,3-dioxoisoindolin-4-yl)amino)octanamido)ethyl)-1H-1,2,4-triazol-3-yl)-2-methoxyphenyl)amino)-N-methylpyridazine-3-carboxamide]	≤20	–	–	–
